These results are taken from ChEMBL document CHEMBL3046569 (Med Chem Res, 2011).

A short description of data set [1]: Therapeutic index, ratio of IC50 for human H9 cells to EC50 for HIV1. The data set is classed as cell-based. Conditions: for selectivity ratio: H9 cells, read-out: Ratio IC50/EC50; for pTI: h9.
Data set [2] concerns Human immunodeficiency virus 1. The experiment in a line: Antiviral activity against Human immunodeficiency virus 1 infected human H9 cells assessed as inhibition of viral replication. The data set is classed as functional, organism-based. The note with it: Human immunodeficiency virus 1, H9.

Structures are written as SMILES.

On to `C=C(C)[C@@H]1CC[C@]2(C(=O)O)CC[C@]3(C)[C@H](CC[C@@H]4[C@@]5(C)CC[C@H](OC(=O)CC(C)(C)C(=O)O)C(C)(C)[C@@H]5CC[C@]43C)[C@@H]12` [BEVIRIMAT], for which, in data set [1], the selectivity ratio is 20000 and the pTI is reported as -4.301. The EC50 in data set [2] (read-out: EC50) came out at 0.35 nM. Besides, the EC50 in data set [2] (read-out: pEC50 (converted)) is 0.3 nM.
As for `CC(C)CC(=O)O[C@H]1CC[C@]2(C)[C@H]3CC[C@@H]4[C@H]5[C@H](C(C)C)CC[C@]5(C(=O)O)CC[C@@]4(C)[C@]3(C)CC[C@H]2C1(C)C`, the pTI in data set [1] is given as -1.748. In addition, in data set [2] (read-out: pEC50 (converted)), the EC50 is 1500 nM.
In the same order, the values of `CC(C)[C@@H]1CC[C@]2(C(=O)OC(=O)OCN(C)C)CC[C@]3(C)[C@H](CC[C@@H]4[C@@]5(C)CCC(=O)C(C)(C)[C@@H]5CC[C@]43C)[C@@H]12` are -0.544 and 3800 nM.
In the same order, the values of `C=C(COC(=O)CC(C)(C)CC(=O)O)[C@@H]1CC[C@]2(COC(=O)CC(C)(C)CC(=O)O)CC[C@]3(C)[C@H](CC[C@@H]4[C@@]5(C)CC[C@H](OC(=O)CC(C)(C)CC(=O)O)C(C)(C)[C@@H]5CC[C@]43C)[C@@H]12` are -2.59 and 45 nM.
In the same order, the values of `C=C(C)[C@@H]1CC[C@]2(COC(=O)CC3(CC(=O)O)CCCC3)CC[C@]3(C)[C@H](CC[C@@H]4[C@@]5(C)CC[C@H](OC(=O)CC6(CC(=O)O)CCCC6)C(C)(C)[C@@H]5CC[C@]43C)[C@@H]12` are -2.427 and 76.9 nM.
As for `CC(C)[C@@H]1CC[C@]2(C(=O)O)CC[C@]3(C)[C@H](CC[C@@H]4[C@@]5(C)CC[C@H](OC(=O)C67CCC(C)(C(=O)O6)C7(C)C)C(C)(C)[C@@H]5CC[C@]43C)[C@@H]12` (stereo partly drawn), in data set [1], the pTI is reported as -0.301. In addition, the EC50 in data set [2] (read-out: pEC50 (converted)) is 500 nM.
In the same order, the values of `CC(C)[C@@H]1CC[C@]2(C(=O)O)CC[C@]3(C)[C@H](CC[C@@H]4[C@@]5(C)CC[C@H](OC(=O)COCC(=O)O)C(C)(C)[C@@H]5CC[C@]43C)[C@@H]12` are -3.37 and 5.6 nM.
In the same order, the values of `C=C(C)[C@@H]1CC[C@]2(C(=O)O)CC[C@]3(C)[C@H](CC[C@@H]4[C@@]5(C)CC[C@H](OC(=O)COCC(=O)O)C(C)(C)[C@@H]5CC[C@]43C)[C@@H]12` are -3.069 and 10 nM.
In the same order, the values of `CC(C)[C@@H]1CC[C@]2(C(=O)OCc3ccccc3)CC[C@]3(C)[C@H](CC[C@@H]4[C@@]5(C)CC[C@H](OC(=O)CCCC(=O)O)C(C)(C)[C@@H]5CC[C@]43C)[C@@H]12` are -1.279 and 500 nM.
Consider `C=C(COC(=O)CC1(CC(=O)O)CCCC1)[C@@H]1CC[C@]2(COC(=O)CC3(CC(=O)O)CCCC3)CC[C@]3(C)[C@H](CC[C@@H]4[C@@]5(C)CC[C@H](OC(=O)CC6(CC(=O)O)CCCC6)C(C)(C)[C@@H]5CC[C@]43C)[C@@H]12`, for which the pTI in data set [1] was -3.076. The EC50 in data set [2] (read-out: pEC50 (converted)) was 5.4 nM.
In the same order, the values of `C=C(C)[C@@H]1CC[C@]2(COC(=O)CC(C)(CC)CC(=O)O)CC[C@]3(C)[C@H](CC[C@@H]4[C@@]5(C)CC[C@H](OC(=O)CC(C)(CC)CC(=O)O)C(C)(C)[C@@H]5CC[C@]43C)[C@@H]12` (stereo partly drawn) are -3.541 and 5.3 nM.
In the same order, the values of `CC(C)[C@@H]1CC[C@]2(C(=O)O)CC[C@]3(C)[C@H](CC[C@@H]4[C@@]5(C)CC[C@H](OC(=O)CCCC(=O)O)C(C)(C)[C@@H]5CC[C@]43C)[C@@H]12` are -0.875 and 1800 nM.
In the same order, the values of `C=C(C)[C@@H]1CC[C@]2(COC(=O)CC(C)(C)CC(=O)O)CC[C@]3(C)[C@H](CC[C@@H]4[C@@]5(C)CC[C@H](O)C(C)(C)[C@@H]5CC[C@]43C)[C@@H]12` are -0.892 and 3600 nM.
`CC(CC(=O)O)CC(=O)OC[C@]12CC[C@@H](C(C)C)[C@@H]1[C@H]1CC[C@@H]3[C@@]4(C)CC[C@H](OC(=O)CC(C)CC(=O)O)C(C)(C)[C@@H]4CC[C@@]3(C)[C@]1(C)CC2` (stereo partly drawn): in data set [1], the pTI is given as -2.512. Besides, the EC50 in data set [2] (read-out: pEC50 (converted)) is 59 nM.
In the same order, the values of `C=C(C)[C@@H]1CC[C@]2(C(=O)NCCCCCCCC(=O)N[C@@H](CC(C)C)[C@@H](O)CC(=O)O)CC[C@]3(C)[C@H](CC[C@@H]4[C@@]5(C)CC[C@H](O)C(C)(C)[C@@H]5CC[C@]43C)[C@@H]12` are -1.544 and 330 nM.
In the same order, the values of `C=C(C)[C@@H]1CC[C@]2(COC(=O)CC(C)(C)CC(=O)O)CC[C@]3(C)[C@H](CC[C@@H]4[C@@]5(C)CC[C@H](OC(=O)CC(C)(C)CC(=O)O)C(C)(C)[C@@H]5CC[C@]43C)[C@@H]12` are -4.333 and 0.659 nM.
Turning to `CC(C)[C@@H]1CC[C@]2(C(=O)OCc3ccccc3)CC[C@]3(C)[C@H](CC[C@@H]4[C@@]5(C)CC[C@H](O)C(C)(C)[C@@H]5CC[C@]43C)[C@@H]12`, in data set [1], the pTI is -0.255. Further, in data set [2] (read-out: pEC50 (converted)), the EC50 is 100000 nM.
In the same order, the values of `C=C(C)[C@@H]1CC[C@]2(C(=O)O)CC[C@]3(C)[C@H](CC[C@@H]4[C@@]5(C)CC[C@H](O)C(C)(C)[C@@H]5CC[C@]43C)[C@@H]12` (stereo in doubt; 8) [BETULINIC ACID] are -1.146 and 899 nM.
In the same order, the values of `C=C(C)[C@@H]1CC[C@]2(COC(=O)CCCC(=O)O)CC[C@]3(C)[C@H](CC[C@@H]4[C@@]5(C)CC[C@H](OC(=O)CCCC(=O)O)C(C)(C)[C@@H]5CC[C@]43C)[C@@H]12` are -0.833 and 3800 nM.
In the same order, the values of `CC(C)[C@@H]1CC[C@]2(COC(=O)CC3(CC(=O)O)CCCC3)CC[C@]3(C)[C@H](CC[C@@H]4[C@@]5(C)CC[C@H](OC(=O)CC6(CC(=O)O)CCCC6)C(C)(C)[C@@H]5CC[C@]43C)[C@@H]12` are -1.568 and 579 nM.
`C=C(CO)[C@@H]1CC[C@]2(CO)CC[C@]3(C)[C@H](CC[C@@H]4[C@@]5(C)CC[C@H](O)C(C)(C)[C@@H]5CC[C@]43C)[C@@H]12` [30-HYDROXY-BETULIN]: in data set [1], the pTI is -0.447. In addition, the EC50 in data set [2] (read-out: pEC50 (converted)) is 50800 nM.
With `C=C(C)[C@@H]1CC[C@]2(C(=O)O)CC[C@]3(C)[C@H](CC[C@@H]4[C@@]5(C)CC[C@H](OC(=O)CCCC(=O)O)C(C)(C)[C@@H]5CC[C@]43C)[C@@H]12`, the pTI in data set [1] is on record as -2.465. Moreover, the EC50 in data set [2] (read-out: pEC50 (converted)) was 44 nM.
Turning to `C=C(C)[C@@H]1CC[C@]2(CO)CC[C@]3(C)[C@H](CC[C@@H]4[C@@]5(C)CC[C@H](O)C(C)(C)[C@@H]5CC[C@]43C)[C@@H]12` [BETULIN], in data set [1], the selectivity ratio was 1.9 and the pTI is on record as -0.279.
For the compound `C=C(C)[C@@H]1CC[C@]2(COC(=O)CC3(CC(=O)O)CCCC3)CC[C@]3(C)[C@H](CC[C@@H]4[C@@]5(C)CC[C@H](O)C(C)(C)[C@@H]5CC[C@]43C)[C@@H]12`, the pTI in data set [1] is recorded as -0.785. Further, the EC50 in data set [2] (read-out: pEC50 (converted)) is 2100 nM.
Regarding `C=C(C)[C@@H]1CC[C@]2(C(=O)O)CC[C@]3(C)[C@H](CC[C@@H]4[C@@]5(C)CC[C@H](O)C(C)(C)[C@@H]5CC[C@]43C)[C@@H]12` (stereo in doubt; 1) [BETULINIC ACID], the pTI in data set [1] is -0.969.
As for `C=C(C)[C@@H]1CC[C@]2(C(=O)O)CC[C@]3(C)[C@H](CC[C@@H]4[C@@]5(C)CC[C@H](OC(=O)CC(C)(C)CC(=O)O)C(C)(C)[C@@H]5CC[C@]43C)[C@@H]12`, the EC50 in data set [2] (read-out: pEC50 (converted)) was 2.3 nM.
Turning to `C=C(C)[C@@H]1CC[C@]2(COC(=O)CCC(=O)O)CC[C@]3(C)[C@H](CC[C@@H]4[C@@]5(C)CC[C@H](OC(=O)CCC(=O)O)C(C)(C)[C@@H]5CC[C@]43C)[C@@H]12`, the pTI in data set [1] is -0.969. Moreover, in data set [2] (read-out: pEC50 (converted)), the EC50 was 3800 nM.
With `CCC(C)(CC(=O)O)CC(=O)OC[C@]12CC[C@@H](C(C)C)[C@@H]1[C@H]1CC[C@@H]3[C@@]4(C)CC[C@H](OC(=O)CC(C)(CC)CC(=O)O)C(C)(C)[C@@H]4CC[C@@]3(C)[C@]1(C)CC2` (stereo partly drawn), the pTI in data set [1] is reported as -2.395. In addition, in data set [2] (read-out: pEC50 (converted)), the EC50 is 75 nM.
In the same order, the values of `C=C(C)[C@@H]1CC[C@]2(CNC(=O)CC(C)(C)CC(=O)O)CC[C@]3(C)[C@H](CC[C@@H]4[C@@]5(C)CC[C@H](NC(=O)CC(C)(C)CC(=O)O)C(C)(C)[C@@H]5CC[C@]43C)[C@@H]12` are -1.564 and 570 nM.
Take `CC(C)[C@@H]1CC[C@]2(C(=O)OC(=O)OCN(C)C)CC[C@]3(C)[C@H](CC[C@@H]4[C@@]5(C)CC[C@H](O)C(C)(C)[C@@H]5CC[C@]43C)[C@@H]12`: in data set [1], the pTI came out at 0. Moreover, the EC50 in data set [2] (read-out: pEC50 (converted)) is 6590 nM.
With `C=C(C)[C@@H]1CC[C@]2(COC(C)=O)CC[C@]3(C)[C@H](CC[C@@H]4[C@@]5(C)CC[C@H](OC(C)=O)C(C)(C)[C@@H]5CC[C@]43C)[C@@H]12` [BETULIN DIACETATE], the pTI in data set [1] is 0. Also, the EC50 in data set [2] (read-out: pEC50 (converted)) was 190000 nM.
Consider `CC(C)[C@@H]1CC[C@]2(C(=O)O)CC[C@]3(C)[C@H](CC[C@@H]4[C@@]5(C)CC[C@H](OC(=O)CC(C)(C)CC(=O)O)C(C)(C)[C@@H]5CC[C@]43C)[C@@H]12`, for which the pTI in data set [1] was -3.007. Also, in data set [2] (read-out: pEC50 (converted)), the EC50 is 5.7 nM.
In the same order, the values of `C=C(C)[C@@H]1CC[C@]2(C(=O)OC(=O)N3CCOCC3)CC[C@]3(C)[C@H](CC[C@@H]4[C@@]5(C)CC[C@H](O)C(C)(C)[C@@H]5CC[C@]43C)[C@@H]12` are -0.556 and 3200 nM.
In the same order, the values of `C=C(C)[C@@H]1CC[C@]2(CO)CC[C@]3(C)[C@H](CC[C@@H]4[C@@]5(C)CC[C@@H](O)C(C)(C)[C@@H]5CC[C@]43C)[C@@H]12` [3-EPI-BETULIN] are -0.532 and 3620 nM.
